Read-outs that look alike come from different tables or passages of the source.
Columns and labels:
[1] = tested on: TR-iBRB2 cells; experiment: Effect of compounds on [3H]amantadine uptake by TR-iBRB2 cells; assay type: in vitro ADME, rat; conditions: for activity at 200 µM / activity at 2500 µM: Rattus norvegicus, 0.05 h, read-out: [3H]amantadine uptake, % of Control, TR-iBRB2
Method: (§1) In 10% fetal bovine serum (FBS; Merck, Darmstadt, Germany)-containing Dulbecco’s modified Eagle’s medium (DMEM; Nissui Pharmaceutical, Tokyo, Japan) with 20 mM NaHCO3, 0.19 mM benzylpenicillin potassium, and 0.14 mM streptomycin sulfate, TR-iBRB2 cells (passage number 32–60) were cultured according to previous reports. As described previously, RPE-J cells (passage number 79-92) were cultured in DMEM with 4% FBS, 20 mM NaHCO3, and 0.1 mM non-essential amino acid (FUJIFILM Wako Pure Chemical, Osaka, Japan) containing 0.16 mM benzylpenicillin potassium and 0.17 mM streptomycin sulfate. In accordance with established protocols for the uptake study, the cells were seeded at a density of 1.0 × 10^5 cells/well onto a collagen I-coated 24-well plate (BioCoat™ Collagen I Cellware, Corning, Corning, NY, USA) and cultured for 2 days, at 33 °C, under 5% CO2/air. Referring to the previous reports, we started the uptake reaction, and the details of the procedure are included in the Supplemental Materials.
(§2) Cell/medium ratio = [^3H]compound (dpm) per cell protein (mg)/[^3H]compound (dpm) per medium (µL)(2) […]
(§3) 7.4) three times at 37°C.
(§4) and KHCO3, respectively. Cl--free ECF buffer was prepared by replacing equimolar
(§5) protein assay kit (Bio-Rad, Hercules, CA, USA).

[2] = tested on: TR-iBRB2 cells; experiment: Amantadine uptake by TR-iBRB2 cells (inner BRB model); assay type: in vitro ADME, rat
Method: as §1
(§6) Cell/medium ratio = [^3H]compound (dpm) per cell protein (mg)/[^3H]compound (dpm) per medium (µL)(2)
(§7) Kinetic parameters for cell uptake, such as the maximal uptake rate (Vmax), Michaelis–Menten constant (Km), and non-saturable uptake clearance (Kd), were obtained by using the nonlinear least-squares regression analysis program (MULTI) with Equations (3)–(5), where the uptake rate of the test compound and its concentration were V and S, respectively. V = (Vmax × S)/(Km + S)(3) V = (Vmax × S)/(Km + S) + Kd × S(4) V = (Vmax1 × S)/(Km1 + S) + (Vmax2 × S)/(Km2 + S)(5) […]
as §3, §4, §5

[3] = biological target: NMDA receptors; design: method as in ref 47 (Parsons et al.); conditions: ref 47 (Parsons et al.); cited from earlier work
[4] = tested on: RPE-J cells; experiment: Amantadine uptake by RPE-J cells (outer BRB model); assay type: in vitro ADME, rat; conditions: for Km1 (high-affinity process): 1.67 µM−10 mM
Method: as §1, §6, §7, §3, §4, §5

[5] = pharmacotherapy for Parkinson's disease; cited from earlier work
[6] = tested on: retina (blood–retinal barrier); experiment: In vivo blood-to-retina transport, retinal uptake index (RUI) method; conditions: co-administration of 50 mM compound, rat
[7] = tested on: RPE-J cells; experiment: Effect of compounds on [3H]amantadine uptake by RPE-J cells; assay type: in vitro ADME, rat; conditions: for activity at 200 µM / activity at 1000 µM / activity at 2500 µM: Rattus norvegicus, 0.05 h, read-out: [3H]amantadine uptake, % of Control, RPE-J
Method: as §1, §2, §3, §4, §5

[8] = cited from earlier work
[9] = design: method as in ref 31 = [31]; 31. Grabowski T. Gumulka S.W. Borucka B. Raszewski W. Analysis relationships between pharmacokinetic parameters in silico/in vivo of selected antiviral drugs based on structural analysis Adv. Clin. Ex; conditions: cited from earlier work
[10] = tested on: TR-iBRB2 cells; conditions: read-out: Km for uptake by TR-iBRB2 cells; cited from earlier work
[11] = tested on: RPE-J cells; experiment: Verapamil uptake by RPE-J cells, effect of amantadine; assay type: in vitro ADME, rat
Method: as §1, §6, §7, §3, §4, §5

[12] = compound 0.2 mM, [3H]amantadine 1.67 µM, 3 min, 37 °C
[13] = pretreatment 30 mM NH4Cl, 15 s, 37 °C
[14] = compound 2.5 mM, [3H]amantadine 1.67 µM, 3 min, 37 °C
[15] = compound 1.0 mM, [3H]amantadine 1.67 µM, 3 min, 37 °C

## CC(=O)Nc1nnc(S(N)(=O)=O)s1 [Acetazolamide]
[1]; [12]
  [3H]amantadine uptake, % of Control, TR-iBRB2: 90.9 ± 3.8 % of Control

## NC12CC3CC(CC(C3)C1)C2 [Amantadine]
[2]
  reduction of uptake at extracellular pH 6.4: 64%
[2]; 4 °C vs 37 °C
  reduction of uptake at 4 °C: 86%
[2]; 37 °C, 3 min, 1.67 to 1000 µM
  Km: 79.4 µM
  Vmax: 1.36 ± 0.38 nmol/(min·mg protein)
[2]; 3 min, 37 °C
  reduction of uptake in Cl−-free buffer: 38%
[2]; [3H]amantadine 1.67 µM, 37 °C
  initial uptake rate: 14.0 ± 4.1 µL/(min·mg protein)
[2]; acute 30 mM NH4Cl, 15 s, 37 °C
  decrease of uptake at alkalized intracellular pH: 80%
[2]; [13]
  increase of uptake at acidified intracellular pH: 90%
[3]
  IC50: 20 µM
[4]
  Km2 (low-affinity process): 9830 ± 1620 µM
  Vmax1 (high-affinity process): 0.914 ± 0.510 nmol/(min·mg protein)
  Vmax2 (low-affinity process): 85.3 ± 11.4 nmol/(min·mg protein)
  contribution of the high-affinity process: 54%
  contribution of the low-affinity process: 46%
  decrease of uptake at extracellular pH 6.4: 32%
  increase of uptake at extracellular pH 8.4: 25%
  Km1 (high-affinity process): 90.5 ± 49.6 µM
[4]; listed as amantadine
  Km1 (high-affinity process): 90.5 µM
  Km2 (low-affinity process): 9830 µM
[4]; 4 °C vs 37 °C
  reduction of uptake at 4 °C: 87%
[4]; [3H]amantadine 1.67 µM, 37 °C
  initial uptake rate: 15.9 ± 0.3 µL/(min·mg protein)
[4]; acute 30 mM NH4Cl, 15 s, 37 °C
  decrease of uptake at alkalized intracellular pH: 78%
[4]; [13]
  increase of uptake at acidified intracellular pH: 18%
[1]
  activity at 200 µM: 34.1 ± 4.1%
[5]
  plasma concentration range: 600 to 29000 nM
[6]
  decrease of [3H]amantadine RUI: 44%
[7]
  activity at 200 µM: 89.9 ± 5.6%
  activity at 1000 µM: 21.3 ± 3.1%
[8]
  pKa: 10.1
[9]
  log D: 0.176

## C[N+](C)(C)CCO [Choline]
[1]
  activity at 200 µM: 101 ± 8%
[7]
  activity at 200 µM: 124 ± 39%

## CN/C(=N/CCSCc1nc[nH]c1C)NC#N [Cimetidine]
[1]
  [3H]amantadine uptake, % of Control, TR-iBRB2: 97.6 ± 24.7 % of Control
[7]; [12]
  [3H]amantadine uptake, % of Control, RPE-J: 106 ± 5 % of Control

## Clc1cccc(Cl)c1N=C1NCCN1 [Clonidine]
[10]
  Km: 286 µM
[1]
  activity at 200 µM: 42.1 ± 12.1%
[1]; compound 0.2 mM
  reduction of [3H]amantadine uptake by TR-iBRB2 cells: more than 58%
[7]
  activity at 200 µM: 71.6 ± 4.7%
  activity at 1000 µM: 30.8 ± 4%

## CCN1/C(=C/c2ccc3ccccc3[n+]2CC)C=Cc2ccccc21.[I-] [Decynium-22]
[1]; [12]
  [3H]amantadine uptake, % of Control, TR-iBRB2: 106 ± 31 % of Control
[7]; [12]
  [3H]amantadine uptake, % of Control, RPE-J: 86.7 ± 41.9 % of Control
[7]; compound 0.5 mM, [3H]amantadine 1.67 µM, 3 min, 37 °C
  [3H]amantadine uptake, % of Control, RPE-J: 136 ± 8 % of Control

## CNCCCN1c2ccccc2CCc2ccccc21 [Desipramine]
[1]; [12]
  [3H]amantadine uptake, % of Control, TR-iBRB2: 7.05 ± 0.57 % of Control
[7]; [12]
  [3H]amantadine uptake, % of Control, RPE-J: 10.7 ± 5.6 % of Control

## N#CC(C#N)=NNc1ccc(OC(F)(F)F)cc1 [FCCP, carbonyl cyanide-p-trifluoromethoxyphenylhydrazone]
[1]
  decrease of [3H]amantadine uptake: 50%

## O=C(O)[C@H](O)[C@@H](O)[C@H](O)[C@H](O)CO [Gluconate]
[1]; [12]
  [3H]amantadine uptake, % of Control, TR-iBRB2: 91.7 ± 21.7 % of Control
[7]; [12]
  [3H]amantadine uptake, % of Control, RPE-J: 86.2 ± 23.4 % of Control

## NCC(=O)O [Glycine]
[1]; [14]
  [3H]amantadine uptake, % of Control, TR-iBRB2: 102 ± 4 % of Control
[7]; [14]
  [3H]amantadine uptake, % of Control, RPE-J: 116 ± 13 % of Control

## CN(C)CCCN1c2ccccc2CCc2ccccc21 [Imipramine]
[1]
  activity at 200 µM: 8.37 ± 1.43%
[7]
  activity at 200 µM: 16.9 ± 5.2%

## N=C(N)NCCC[C@H](N)C(=O)O [L-Arginine]
[1]
  activity at 2500 µM: 127 ± 15%
[7]
  activity at 2500 µM: 150 ± 38%

## N[C@@H](CC(=O)O)C(=O)O [L-Aspartic acid]
[1]
  activity at 2500 µM: 101 ± 23%
[7]
  activity at 2500 µM: 79.5 ± 12.7%

## C[N+](C)(C)C[C@H](O)CC(=O)[O-] [L-Carnitine]
[1]; [12]
  [3H]amantadine uptake, % of Control, TR-iBRB2: 111 ± 35 % of Control
[1]; [14]
  [3H]amantadine uptake, % of Control, TR-iBRB2: 99.5 ± 2.3 % of Control
[7]; [12]
  [3H]amantadine uptake, % of Control, RPE-J: 95.1 ± 5.2 % of Control
[7]; [14]
  [3H]amantadine uptake, % of Control, RPE-J: 119 ± 28 % of Control

## N[C@@H](CCC(=O)O)C(=O)O [L-Glutamic acid]
[1]
  activity at 2500 µM: 80.2 ± 10%
[7]
  activity at 2500 µM: 84.5 ± 16.4%

## CC(C)C[C@H](N)C(=O)O [L-Leucine]
[1]; [14]
  [3H]amantadine uptake, % of Control, TR-iBRB2: 112 ± 17 % of Control
[7]; [14]
  [3H]amantadine uptake, % of Control, RPE-J: 113 ± 16 % of Control

## C[n+]1ccc(-c2ccccc2)cc1 [MPP^+, 1-methyl-4-phenylpyridinium]
[1]; [12]
  [3H]amantadine uptake, % of Control, TR-iBRB2: 106 ± 31 % of Control
[7]; [12]
  [3H]amantadine uptake, % of Control, RPE-J: 75.5 ± 5.0 % of Control
[7]; [15]
  [3H]amantadine uptake, % of Control, RPE-J: 91.9 ± 5.6 % of Control

## CC12CC3CC(C)(C1)CC(N)(C3)C2 [Memantine]
[1]
  activity at 200 µM: 16.7 ± 2.2%
[7]
  activity at 200 µM: 123 ± 38%
  activity at 1000 µM: 27.1 ± 2.6%

## Nc1ccc(C(=O)NCC(=O)O)cc1 [PAH, p-aminohippuric acid]
[1]
  activity at 200 µM: 85.8 ± 10.8%
[7]
  activity at 200 µM: 139 ± 33%

## CC(C)NCC(O)COc1cccc2ccccc12 (centres unmarked) [Propranolol]
[10]
  Km: 237 µM
[1]; compound 0.2 mM
  reduction of [3H]amantadine uptake by TR-iBRB2 cells: more than 58%
[1]; [12]
  [3H]amantadine uptake, % of Control, TR-iBRB2: 8.61 ± 0.75 % of Control
[7]; [12]
  [3H]amantadine uptake, % of Control, RPE-J: 15.7 ± 5.9 % of Control

## COc1ccc(CN(CCN(C)C)c2ccccn2)cc1 [Pyrilamine]
[1]
  activity at 200 µM: 20.9 ± 1.8%
[7]
  activity at 200 µM: 77.8 ± 38.4%
  activity at 1000 µM: 18.2 ± 1.7%

## CCc1nc(N)nc(N)c1-c1ccc(Cl)cc1 [Pyrimethamine]
[1]
  activity at 200 µM: 44.3 ± 8.8%
[7]
  activity at 200 µM: 88.9 ± 3.3%

## C=C[C@H]1C[N@@]2CC[C@H]1C[C@@H]2[C@@H](O)c1ccnc2ccc(OC)cc12 [Quinidine]
[1]; [12]
  [3H]amantadine uptake, % of Control, TR-iBRB2: 13.7 ± 1.8 % of Control
[7]; [12]
  [3H]amantadine uptake, % of Control, RPE-J: 34.1 ± 3.0 % of Control

## NCCc1c[nH]c2ccc(O)cc12 [Serotonin]
[1]
  activity at 200 µM: 126 ± 60%
[7]
  activity at 200 µM: 158 ± 52%

## CC[N+](CC)(CC)CC [TEA, tetraethylammonium]
[1]
  [3H]amantadine uptake, % of Control, TR-iBRB2: 117 ± 45 % of Control
[7]; [12]
  [3H]amantadine uptake, % of Control, RPE-J: 87.7 ± 11.8 % of Control
[7]; [15]
  [3H]amantadine uptake, % of Control, RPE-J: 81.8 ± 10.3 % of Control

## CC(C)(C)NC[C@H](O)COc1nsnc1N1CCOCC1 [Timolol]
[1]; [12]
  [3H]amantadine uptake, % of Control, TR-iBRB2: 34.6 ± 10.6 % of Control
[7]; [12]
  [3H]amantadine uptake, % of Control, RPE-J: 59.1 ± 5.1 % of Control

## COc1ccc(CCN(C)CCCC(C#N)(c2ccc(OC)c(OC)c2)C(C)C)cc1OC (centres unmarked) [Verapamil]
[11]
  Km: 55.6 ± 5.2 µM
  Vmax: 6.31 ± 0.35 nmol/(min·mg protein)
  reduction of [3H]verapamil uptake by unlabeled verapamil: 86%
[1]
  [3H]amantadine uptake, % of Control, TR-iBRB2: 22.1 ± 6.2 % of Control
[7]
  [3H]amantadine uptake, % of Control, RPE-J: 20.5 ± 4.8 % of Control

Source: paper PMC8469395 (Pharmaceutics, 2021)
